Values quoted from earlier work, collected in US8163702B2, “Treatment of melanoma” (SciClone Pharmaceuticals, Inc., priority 2006, dated 2012).

Tested on: thymocyte and lymphocyte
Details: cited from earlier work

Question: Which “Con-A-induced thymocyte and lymphocyte proliferation” value does the source give for `N[C@H](CCC(=O)N[C@@H](Cc1c[nH]c2ccccc12)C(=O)O)C(=O)O` [SCV-07, γ-D-glutamyl-L-tryptophan] here?
Answer: The value was “increases”.
